Test results as given in patent US8575103B2, “Peptides and methods for inhibiting G alpha protein signaling” (The Board of Trustees of the University of Illinois, priority 2009, dated 2013).
Entries after “also recorded” stand apart in the source; their conditions may differ. Where no end group is shown, it is not given here. The star is where a group is joined. Myristoyl = CCCCCCCCCCCCCC(=O)*

Tests used:
[1] = test system: CD1 mice; assay: bleeding time in mice after intravenous administration; type: in vivo; conditions: 100 μl of 3.7 mM intravenously via tail vein, tail cut five minutes after administration
Protocol: Briefly, CD1 mice (25 grams) were anesthetized with sodium pentobarbital, and either 100 μl of vehicle or 100 μl of a vehicle solution containing 3.7 mM of each peptide or aspirin was administered intravenously via the tail vein. Five minutes following administration, the tail was cut 0.5 cm from the tip and immersed in PBS buffer (pH 7.4; 37EC). Cessation of bleeding was observed visually and the total bleeding time was recorded.

[2] = test system: human platelets; assay: human platelet aggregation in platelet rich plasma (PRP); type: cell-based
[3] = molecular target: T1, talin (Homo sapiens, UniProt Q9Y490); assay: peptide affinity column with solubilized human platelets, western blot for talin; type: binding; conditions: solubilized human platelets, immunoblot; whole talin (220 kD), talin head domain (47 kD)
T1 construct: also purified whole talin (220 kD), the talin head domain (47 kD) and kindlin 3 (72 kD); endogenous in cells; host or cells: solubilized human platelets
T1 sequence (Q9Y490 1-433): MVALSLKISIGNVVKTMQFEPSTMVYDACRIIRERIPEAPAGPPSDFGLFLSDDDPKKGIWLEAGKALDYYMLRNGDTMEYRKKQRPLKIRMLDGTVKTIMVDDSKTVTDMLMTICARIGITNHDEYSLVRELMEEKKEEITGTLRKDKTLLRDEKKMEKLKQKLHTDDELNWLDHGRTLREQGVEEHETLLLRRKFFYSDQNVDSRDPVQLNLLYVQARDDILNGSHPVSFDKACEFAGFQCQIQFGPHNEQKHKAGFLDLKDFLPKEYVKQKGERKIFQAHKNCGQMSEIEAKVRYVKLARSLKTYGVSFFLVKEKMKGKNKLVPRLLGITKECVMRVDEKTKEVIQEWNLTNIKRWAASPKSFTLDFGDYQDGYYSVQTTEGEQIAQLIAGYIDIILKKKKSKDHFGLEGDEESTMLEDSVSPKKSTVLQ
Excerpt: (§1) On this basis, subsequent experiments examined whether G13SR2pep peptide (SEQ ID NO:5) does indeed directly interact with α11bβ3 and/or one of its associated proteins in human platelets. In this respect, platelet α11bβ3 integrin is known to exist in a complex with two cytoplasmic proteins, i.e., talin and kindlin-3 (Tadokoro, et al. (2003) Science 302:103-6; Moser, et al. (2008) Nature Med. 14:325-30). To determine whether G13SR2pep, (SEQ ID NO:5) interacts with any of these proteins (or with the entire α11bβ3, talin, kindlin-3 complex), peptide affinity columns using G13SR2pep (SEQ ID NO:5) were employed. The affinity purified protein(s) from solubilized human platelets that specifically bound to the G13SR2pep peptide were eluted, and analyzed by western blot for α11bβ3 integrin, talin and kindlin-3. In similar experiments, the eluates from a peptide column using the G13SR2-Random Peptide (SEQ ID NO:9) were also analyzed. Immunoblot analysis with the α11bβ3 antibodies (Abcam) detected two bands, one at 130 kD and the other at 115 kD in solubilized human platelets as well as in the elution fraction obtained from the G13SR2pep (SEQ ID NO:5) affinity column. […] This was supported by similar experiments using talin antibodies and the kindlin 3 antibody (Abcam).
Thus, the binding of G13SR2pep (SEQ ID NO:5) to the talin head domain serves as the basis for the ability of G13SR2pep to inhibit α11bβ3 integrin activation and platelet aggregation. As such, peptides or specific compounds fashioned to mimic or modify the switch region interaction with talin, α11bβ3 integrin or other α11bβ3 integrin-associated proteins would have profound effects on thrombosis and other integrin-linked disease processes.

[4] = molecular target: T2, kindlin-3 (Homo sapiens, UniProt Q86UX7); assay: peptide affinity column with solubilized human platelets, western blot for kindlin-3; type: binding; conditions: immunoblot, kindlin 3 (72 kD)
T2 construct: also purified whole talin (220 kD), the talin head domain (47 kD) and kindlin 3 (72 kD); endogenous in cells; host or cells: solubilized human platelets
Excerpt: as §1

[5] = molecular target: T3, α11bβ3 integrin (Homo sapiens, UniProt P05106+P08514+Q9Y490); assay: peptide affinity column with solubilized human platelets, western blot for α11bβ3; type: binding; conditions: immunoblot, bands at 130 kD and 115 kD
T3 construct: detected two bands, one at 130 kD and the other at 115 kD in solubilized human platelets; endogenous in cells; host or cells: solubilized human platelets
Excerpt: as §1

[6] = test system: human platelets; assay: human platelet aggregation in platelet rich plasma (PRP); type: cell-based; conditions: for effect on human platelet aggregation induced by U46619 (TP): 0.5 μM U46619
Protocol: Trace (a) is control data from human platelet rich plasma (PRP) incubated with 500 μM of the Random Peptide (Myr-Leu-Ile-Arg-Pro-Tyr-Leu-His-Arg-Ala-Thr-Lys-Glu-Gly; SEQ ID NO:6), prior to stimulation with 15 μM of the PAR1 receptor agonist TRAP1. Trace (b) depicts data wherein PRP was treated with 30 μM Myr-G13SR1pep-2 prior to stimulation with 15 μM TRAP1. Trace (c) depicts data wherein PRP was treated with 50 μM Myr-G13SR1pep-2 prior to stimulation with 15 μM TRAP1. Trace (d) is control data showing PRP treated with 500 μM of the Random Peptide (SEQ ID NO:6) prior to stimulation with the 0.5 μM thromboxane receptor agonist U46619. Trace (e) depicts data wherein PRP was treated with 500 μM Myr-G13SR1pep-2 prior to stimulation with 0.5 μM U46619. Trace (f) is control data showing PRP treated with 500 μM of the Random Peptide (SEQ ID NO:6) prior to stimulation with 10 μM of the P2Y1/P2Y12 receptor agonist ADP. […] Trace (h) depicts control data showing PRP treated with 500 μM of the Random Peptide (SEQ ID NO:6) prior to stimulation with 40 μM of the PAR4 receptor agonist TRAP4. Trace (i) depicts data wherein PRP was treated with 500 μM Myr-G13SR1pep-2 prior to stimulation with 40 μM TRAP4.
Trace (a) depicts control data showing PRP treated with 500 μM of the Random Peptide (Myr-Gln-Arg-Ile-Arg-Phe-Cys-Ser-Glu-Gly-Val-Glu-Lys-Gly-His-Trp-Asn-Arg; SEQ ID NO:7) prior to stimulation with 15 μM of the PAR1 receptor agonist TRAP1. Trace (b) depicts data wherein PRP was treated with 500 μM Myr-GqSR2pep prior to stimulation with 15 μM TRAP1. Trace (c) is control data showing PRP treated with 500 μM Random Peptide (SEQ ID NO:7) prior to stimulation with the 0.5 μM of the thromboxane receptor agonist U46619. Trace (d) depicts data wherein PRP was treated with 50 μM Myr-GqSR2pep, prior to stimulation with 0.5 μM U46619. Trace (e) depicts data wherein PRP was treated with 150 μM Myr-GqSR2pep prior to stimulation with 0.5 μM U46619. Trace (f) is control data showing PRP treated with 500 μM Random Peptide (SEQ ID NO:7) prior to stimulation with 10 μM ADP. Trace (g) depicts data wherein PRP was treated with 50 μM Myr-GqSR2pep prior to stimulation with 10 μM ADP. Trace (h) depicts data wherein PRP was treated with 150 μM Myr-GqSR2pep prior to stimulation with 10 μM ADP. Trace (i) is control data showing PRP treated with 500 μM Random Peptide (SEQ ID NO:7) prior to stimulation with 40 μM of the PAR4 receptor agonist TRAP4. Trace (j) depicts data wherein PRP was treated with 150 μM Myr-GqSR2pep prior to stimulation with 40 μM of TRAP4.
Trace (a) is control data showing PRP treated with 500 μM of the Random Peptide (Myr-Gly-Ile-His-Glu-Trp-Glu-Val-Gly-Ser-Phe-Lys-Gly-Cys-Gln-Lys-Arg-Arg; SEQ ID NO:8) prior to stimulation with 15 μM of the PAR1 receptor agonist TRAP1. Trace (b) depicts data wherein PRP was treated with 500 μM Myr-GiSR2pep prior to stimulation with 15 μM TRAP1. Trace (c) is control data showing PRP treated with 500 μM Random Peptide (SEQ ID NO:8) prior to stimulation with the 0.5 μM of the thromboxane receptor agonist U46619. Trace (d) depicts data wherein PRP was treated with 500 μM Myr-GiSR2pep prior to stimulation with 0.5 μM U46619. Trace (e) is control data showing PRP treated with 500 μM Random Peptide (SEQ ID NO:8) prior to stimulation with 10 μM ADP. Trace (f) depicts data wherein PRP was treated with 150 μM Myr-GiSR2pep, prior to stimulation with 10 μM ADP. Trace (g) depicts data wherein PRP was treated with 500 μM Myr-GiSR2pep prior to stimulation with 10 μM ADP. Trace (h) is control data showing PRP treated with 500 μM Random Peptide prior (SEQ ID NO:8) to stimulation with 40 μM of the PAR4 receptor agonist TRAP4. Trace (i) depicts data wherein PRP was treated with 500 μM Myr-GiSR2pep prior to stimulation with 40 μM of TRAP4 […]

[7] = test system: α11bβ3 integrin; assay: platelet α11bβ3 integrin activation, FITC-PAC1 antibody binding by flow cytometry; type: cell-based, human; conditions: single substitution Arg232 to Ala versus parent G13SR2pep
Protocol: The platelet count in human PRP was adjusted to 1×10^6 platelets/ml. The platelets were then labeled with FITC-conjugated PAC1 antibody against activated α11bβ3 integrin, and the samples were analyzed by flow cytometry in a Beckman Coulter CyAn II Flow Cytometer. Trace (a) depicts resting platelets labeled with FITC-PAC-1 antibody. Trace (b) depicts platelets stimulated with 0.5 μM U46619 and labeled with FITC-PAC1 antibody. Trace (c) depicts platelets incubated with 500 μM of the Random Peptide (SEQ ID NO:9), followed by 0.5 μM U46619 stimulation and FITC-PAC1 labeling. Trace (d) depicts platelets incubated with 150 μM of the G13SR2pep, followed by 0.5 μM U46619 stimulation and FITC-PAC1 labeling.
Subsequent experiments examined the effect of G13SR2pep, (SEQ ID NO:5) on human platelet α11bβ3 integrin activation as measured by FITC-PAC-1 antibody binding.

[8] = PRP, 500 μM peptide, 15 μM TRAP1
[9] = PRP, 500 μM peptide, 40 μM TRAP4

CC(=O)Oc1ccccc1C(=O)O [ASA, aspirin, reference compound]
bleeding time [1]: increase

GFDEWEVSFKGCQRRSR [Random Peptide (SEQ ID NO:9), random peptide control for G13SR2pep, reference compound]
inhibition of human platelet aggregation stimulated by U46619 ([2]; PRP, 75-150 μM G13SR2pep (Random Peptide 500 μM), 0.5 μM U46619): without effect
inhibition of human platelet aggregation stimulated by ADP ([2]; PRP, 75-150 μM G13SR2pep (Random Peptide 500 μM), 10 μM ADP): without effect
inhibition of human platelet aggregation stimulated by TRAP1 ([2]; PRP, 75-150 μM G13SR2pep (Random Peptide 500 μM), 15 μM TRAP1): without effect
inhibition of human platelet aggregation stimulated by TRAP4 ([2]; PRP, 75-150 μM G13SR2pep (Random Peptide 500 μM), 50 μM TRAP4): without effect
talin in affinity column eluate [3]: did not reveal the presence
kindlin 3 in affinity column eluate [4]: did not reveal the presence
α11bβ3 in affinity column eluate (interaction with peptide) [5]: did not reveal the presence

Myr-Leu-Leu-Ala-Arg-Arg-Pro-Thr-Ala-Gly-Ile-His-Glu-Tyr (Myristoyl-LLARRPTAGIHEY) [Myr-G13SR1pep-2, myristoylated Gα13 switch region 1 peptide, Lys changed to Ala]
effect on human platelet aggregation induced by U46619 (TP) ([6]; PRP, 500 μM peptide): no measurable effect
effect on human platelet aggregation induced by ADP ([6]; PRP, 500 μM peptide, 10 μM ADP): no measurable effect
effect on human platelet aggregation induced by TRAP1 (PAR1) [6, 8]: no measurable effect
effect on human platelet aggregation induced by TRAP4 (PAR4) [6, 9]: no measurable effect
inhibition of PAR1-induced human platelet aggregation ([6]; PRP, 30-50 μM peptide, 15 μM TRAP1): progressive inhibition; also recorded: blocked
potency relative to the original peptide (Myr-G13SR1pep) for inhibition of PAR1-induced human platelet aggregation ([6]; human PRP): ten-fold increased potency
bleeding time [1]: increased bleeding times; also recorded: substantially increases

Myr-Val-Gly-Gly-Gln-Arg-Ser-Glu-Arg-Arg-Lys-Trp-Ile-His-Cys-Phe-Glu-Asn (Myristoyl-VGGQRSERRKWIHCFEN) [Myr-GqSR2pep, myristoylated Gαq switch region 2 peptide]
effect on human platelet aggregation induced by TRAP1 (PAR1) [6, 8]: ineffective
inhibition of human platelet aggregation induced by PAR4 receptors ([6]; PRP, 50-150 μM peptide, 40 μM TRAP4): dose-dependent inhibition
inhibition of human platelet aggregation induced by TP receptors ([2]; PRP, 50-150 μM peptide, 0.5 μM U46619): dose-dependent inhibition
inhibition of human platelet aggregation induced by ADP receptors ([2]; PRP, 50-150 μM peptide, 10 μM ADP): dose-dependent inhibition

Myr-Val-Gly-Gly-Gln-Arg-Ser-Glu-Arg-Lys-Lys-Trp-Ile-His-Cys-Phe-Glu-Gly (Myristoyl-VGGQRSERKKWIHCFEG) [Myr-Gi SR2pep, myristoylated Gαi switch region 2 peptide]
effect on human platelet aggregation induced by U46619 (TP) ([6]; PRP, 500 μM peptide): without affecting
effect on human platelet aggregation induced by TRAP1 (PAR1) [6, 8]: without affecting
effect on human platelet aggregation induced by TRAP4 (PAR4) [6, 9]: without affecting
inhibition of ADP-induced aggregation ([6]; PRP, 150-500 μM peptide, 10 μM ADP): dose-dependent (150-500 μM) inhibition

RSERKRWFECFD [G13SR2pep-truncated, truncated version of the G13 Switch Region 2 peptide]
inhibition of human platelet aggregation compared with full length G13SR2pep ([2]; PRP, 150 μM peptide, 15 μM TRAP1 or 0.5 μM U46619 (FIG. 5)): inhibited human platelet aggregation with the same potency

VGGQRSERKAWFECFDS [G13SR2mutant pep, G13SR2pep with single substitution at amino acid 232 from Arg to Ala, reference compound]
ability to block platelet activation ([2]; single substitution Arg232 to Ala versus parent G13SR2pep): completely eliminated the ability
ability to block integrin activation [7]: completely eliminated the ability
